Measured values taken from US9273014B2, “Bis(fluoroalkyl)-1,4-benzodiazepinone compounds and prodrugs thereof” (Bristol-Myers Squibb Company, priority 2012, dated 2016).
Entries after “also recorded” stand apart in the source; their conditions may differ.

Key:
[1] = system: MDA-MB-157 Human Breast Carcinoma; assay: Human tumor xenograft model in mice, MDA-MB-157; assay type: in vivo; conditions: oral administration, 10-20 mg/kg, QDx15, 10 day-on-2 day-off-5 day on
Description: (§1) Human Tumor Xenograft Models in Mice
(§2) Mice were fed food and water ad libitum.
(§3) Tumor growth inhibition is calculated as follows: […]
(§4) When death occurred, the day of death was recorded.

[2] = system: MDA-MB-468 Human Breast Carcinoma; conditions: oral administration, 10-20 mg/kg, QDx15, 10 day-on-2 day-off-5 day on
Description: Treatment of each animal was based on individual body weight. Treated animals were checked daily for treatment related toxicity/mortality. Each group of animals was weighed before the initiation of treatment (Wt1) and then again following the last treatment dose (Wt2). The difference in body weight (Wt2−Wt1) provides a measure of treatment-related toxicity.
Statistical evaluations of data were performed using Gehan's generalized Wilcoxon test. Statistical significance was declared at P<0.05.

in vitro = conditions: human, microsomes, pH 7.4
[3] = system: TALL1 Human T-cell acute lymphoblastic leukemia; assay: Human tumor xenograft model in mice, TALL1; assay type: in vivo; conditions: oral administration, QDx10, LCK = Log Cell Kill
Description: as §1, §2, §3, §4

human tumor xenografts = assay: Human tumor xenograft models in mice (general statement); assay type: in vivo; conditions: orally administered (PO)
Description: Mice were fed food and water ad libitum. […] [table] […] When death occurred, the day of death was recorded.

human Notch 3 = human Notch 3 (Homo sapiens, UniProt Q9UM47); assay: Notch-CBF1 Transactivation Assay (Notch 3); assay type: cell-based; conditions: HeLa cells co-transfected with truncated Notch 3 and CBF1 luciferase reporter; 18 hours incubation
Chain of human Notch 3 (Q9UM47 40-2321 limits assumed): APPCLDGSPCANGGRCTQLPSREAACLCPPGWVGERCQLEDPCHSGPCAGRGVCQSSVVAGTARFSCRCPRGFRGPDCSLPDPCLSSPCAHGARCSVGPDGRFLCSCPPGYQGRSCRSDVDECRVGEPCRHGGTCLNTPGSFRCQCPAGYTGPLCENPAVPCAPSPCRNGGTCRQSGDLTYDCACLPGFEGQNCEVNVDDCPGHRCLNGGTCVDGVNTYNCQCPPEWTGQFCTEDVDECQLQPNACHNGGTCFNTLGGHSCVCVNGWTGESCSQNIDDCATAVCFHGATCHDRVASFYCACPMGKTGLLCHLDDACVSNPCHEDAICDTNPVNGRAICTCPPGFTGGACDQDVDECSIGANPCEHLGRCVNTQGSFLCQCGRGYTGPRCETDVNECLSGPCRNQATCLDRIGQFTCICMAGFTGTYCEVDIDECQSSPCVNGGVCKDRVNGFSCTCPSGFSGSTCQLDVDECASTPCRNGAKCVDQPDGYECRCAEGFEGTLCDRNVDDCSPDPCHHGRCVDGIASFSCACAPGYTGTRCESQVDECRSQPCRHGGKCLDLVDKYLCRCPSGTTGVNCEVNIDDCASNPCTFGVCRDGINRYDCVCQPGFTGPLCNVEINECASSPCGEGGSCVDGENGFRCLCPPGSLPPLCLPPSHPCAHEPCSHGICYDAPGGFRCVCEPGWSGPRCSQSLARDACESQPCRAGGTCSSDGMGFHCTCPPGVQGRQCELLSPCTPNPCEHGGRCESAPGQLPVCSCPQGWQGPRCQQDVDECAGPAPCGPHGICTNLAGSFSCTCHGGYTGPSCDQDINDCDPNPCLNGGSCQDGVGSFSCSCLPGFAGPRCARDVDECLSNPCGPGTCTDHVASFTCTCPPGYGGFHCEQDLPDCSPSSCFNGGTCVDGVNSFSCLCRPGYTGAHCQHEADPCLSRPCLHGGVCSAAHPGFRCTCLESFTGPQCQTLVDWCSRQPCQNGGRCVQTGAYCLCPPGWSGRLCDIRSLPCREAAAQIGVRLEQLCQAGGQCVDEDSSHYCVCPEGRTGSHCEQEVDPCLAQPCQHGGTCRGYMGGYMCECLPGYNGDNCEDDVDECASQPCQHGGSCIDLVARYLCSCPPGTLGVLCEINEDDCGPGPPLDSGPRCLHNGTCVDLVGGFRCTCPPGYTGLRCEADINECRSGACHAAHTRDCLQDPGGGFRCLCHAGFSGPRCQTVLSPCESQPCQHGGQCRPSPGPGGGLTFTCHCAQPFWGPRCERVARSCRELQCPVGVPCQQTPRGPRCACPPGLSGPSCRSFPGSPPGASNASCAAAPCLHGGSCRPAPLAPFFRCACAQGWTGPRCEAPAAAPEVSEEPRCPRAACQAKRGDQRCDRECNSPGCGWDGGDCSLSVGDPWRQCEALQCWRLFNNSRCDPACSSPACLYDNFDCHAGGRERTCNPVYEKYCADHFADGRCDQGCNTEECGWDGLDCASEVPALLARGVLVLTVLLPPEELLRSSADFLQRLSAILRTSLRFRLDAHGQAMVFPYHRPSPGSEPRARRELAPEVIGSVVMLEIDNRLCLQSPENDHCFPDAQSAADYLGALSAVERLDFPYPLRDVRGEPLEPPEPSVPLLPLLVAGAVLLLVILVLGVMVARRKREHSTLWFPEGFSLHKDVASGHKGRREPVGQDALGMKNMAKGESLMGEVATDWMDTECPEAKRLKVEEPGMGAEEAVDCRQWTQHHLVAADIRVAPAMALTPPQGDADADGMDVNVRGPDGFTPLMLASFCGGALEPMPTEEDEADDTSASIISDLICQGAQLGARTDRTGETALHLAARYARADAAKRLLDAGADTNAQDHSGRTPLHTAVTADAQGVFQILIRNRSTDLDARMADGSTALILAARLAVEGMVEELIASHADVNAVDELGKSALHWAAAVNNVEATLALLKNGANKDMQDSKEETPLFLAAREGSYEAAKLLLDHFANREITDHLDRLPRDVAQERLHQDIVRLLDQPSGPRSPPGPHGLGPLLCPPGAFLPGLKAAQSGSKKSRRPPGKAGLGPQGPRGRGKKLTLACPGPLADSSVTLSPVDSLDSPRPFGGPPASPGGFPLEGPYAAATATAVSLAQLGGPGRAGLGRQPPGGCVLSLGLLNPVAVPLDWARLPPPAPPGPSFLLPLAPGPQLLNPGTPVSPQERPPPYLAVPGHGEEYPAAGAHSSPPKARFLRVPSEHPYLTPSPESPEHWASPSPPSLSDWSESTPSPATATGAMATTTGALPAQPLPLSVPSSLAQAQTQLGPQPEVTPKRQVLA
From the text: Notch-CBF1 Transactivation Assay
The Notch-CBF1 (C-promoter binding factor I) cell based transactivation assay is based on the ability of the released Notch intracellular domain fragments (NICDs) to function as transcription factors in conjunction with CBF1 and other nuclear factors. Luciferase assays were used to measure the antagonism of Notch-CBF1 transcriptional activity. HeLa cervical cancer cells are transiently co-transfected with pCDNA3.1/Hygro plasmids containing truncated Notch 1, Notch 2, Notch 3, or Notch 4 receptors and a PGL3 luciferase reporter vector containing 4 copies of CBF1 binding site. The cells were then tested for Notch-CBF1 activity in the absence or presence of test compounds. HeLa cells, maintained in DMEM (high glucose with HEPES), 1× glutamine/penicillin/streptomycin and 10% Fetal Bovine serum, were transiently transfected in a T175 Flask (4.5×10^6 cells/flask) using the Monster Transfection Kit (Minis #MIR2906) according to manufacturers specifications. Table 9 denotes respective DNA quantity for the transfections.
Assay media (5 μL) containing test compounds in final concentrations ranging from 5 μM to 8.4×10^−5 μM (3 fold serial dilutions) were added to the cells and the cell plates were then incubated for 18 hours at 37° C. and 5% CO2. Control wells contained DMSO vehicle (total counts) or 0.5 μM of an in-house small molecule inhibitor (background counts). Duplicates were used for each sample. Luciferase activity was measured after a 20-minute incubation with 50 μl STEADY-GLO® luciferase reagents according to manufacturer's specifications (Promega, Cat. #E2550) and analyzed by Envision plate reader (PerkinElmer, Boston, Mass.).
The antagonist effect of compounds was expressed as 100×[1−(average sample-average background)/(average total−average background)] where sample is the luciferase activity in the presence of test compound, background is equal to the luciferase activity in the presence of the small molecule inhibitor control and the total is signal induced in DMSO wells.

[4] = human metabolic stability half-life assay; conditions: microsomes, pH 7.4
[5] = Prodrug evaluation: single-dose pharmacokinetics in rats; conditions: rat, oral gavage, dose 3.00 mg/kg
Description: Male SPRAGUE DAWLEY® rats (250-300 g) were used for the pharmacokinetic studies. Rats were fasted overnight prior to dosing and fed 4 hrs post dose. In each study, groups of animals (N=2-3) received the test compound by oral gavage. Blood samples (˜0.3 mL) were collected from the jugular vein into K2EDTA-containing tubes at 0.5, 1, 3, 5, 7, and 24 h post dose. Plasma samples, obtained by centrifugation at 4° C. (1500-2000× g), were stored at −20° C. until analysis by LC/MS/MS.
The pharmacokinetic parameters were obtained by non-compartmental analysis of plasma concentration (determined by LC/MS/MS) vs. time data (ThermoKinetica Software version 5.0). The peak concentration (Cmax) and time for Cmax, Tmax, were recorded directly from experimental observations. The area under the curve from time zero to the last sampling time (AUC0-t) was calculated using a combination of linear and log trapezoidal summations. The total plasma clearance (CLTp), steady-state volume of distribution (Vss), apparent elimination half-life (t1/2) and mean residence time (MRT) were estimated after IV administration. […] The absolute oral bioavailability F was estimated as the ratio of dose-normalized AUC values following oral and IV doses.

SMILES	IC50 (human Notch 3)	half-life (in vitro)	other results
Cc1cccc2c1NC(=O)[C@@H](NC(=O)[C@H](CCC(F)(F)F)[C@H](CCC(F)(F)F)C(N)=O)N=C2c1cccc(F)c1 [Example 1, (2R,3S)—N-((3S)-5-(3-Fluorophenyl)-9-methyl-2-oxo-2,3-dihydro-1H-1,4-benzodiazepin-3-yl)-2,3-bis(3,3,3-trifluoropropyl)succinamide]	8.5 nM		Antitumor Activity MDA-MB-157 (% TGI) [1]: 91%; Antitumor Activity MDA-MB-468 (% TGI) [2]: 98%; half-life at 0.5 µM (in vitro): 1.72 h; Antitumor Activity TALL1 (LCK) ([3]; 10-20 mg/kg): >4.3; antitumor activity in human tumor xenografts implanted in mice (human tumor xenografts): exhibited antitumor activity; also recorded: showed antitumor activity
CC(C)c1cccc2c1NC(=O)[C@@H](NC(=O)[C@H](CCC(F)(F)F)[C@H](CCC(F)(F)F)C(N)=O)N=C2c1cccc(Cl)c1 [Example 3, (2R,3S)—N-((3S)-5-(3-Chlorophenyl)-9-isopropyl-2-oxo-2,3-dihydro-1H-1,4-benzodiazepin-3-yl)-2,3-bis(3,3,3-trifluoropropyl)succinamide]	1.9 nM	1.22 h	Antitumor Activity TALL1 (LCK) ([3]; 10 mg/kg): 4.0; antitumor activity in human tumor xenografts implanted in mice (human tumor xenografts): showed antitumor activity
Cc1cccc2c1NC(=O)[C@@H](NC(=O)[C@H](CCC(F)(F)F)[C@H](CCCC(F)(F)F)C(N)=O)N=C2c1cccc(C(F)(F)F)c1 [Example 18, (2R,3S)—N-((3S)-9-Methyl-2-oxo-5-(3-(trifluoromethyl)phenyl)-2,3-dihydro-1H-1,4-benzodiazepin-3-yl)-3-(4,4,4-trifluorobutyl)-2-(3,3,3-trifluoropropyl)succinamide]	7.7 nM	> 2 h	
NC(=O)[C@@H](CCC(F)(F)F)[C@@H](CCC(F)(F)F)C(=O)N[C@H]1N=C(c2ccccc2)c2cccc(OC3CC3)c2NC1=O [Example 19, (2R,3S)—N-((3S)-9-(Cyclopropyloxy)-2-oxo-5-phenyl-2,3-dihydro-1H-1,4-benzodiazepin-3-yl)-2,3-bis(3,3,3-trifluoropropyl)succinamide]	4 nM	1.8 h	
Cc1cccc2c1NC(=O)[C@@H](NC(=O)[C@H](CCC(F)(F)F)[C@H](CCC(F)(F)F)C(N)=O)N=C2c1cccc(C(F)(F)F)c1 [Example 20, (2R,3S)—N-((3S)-9-Methyl-2-oxo-5-(3-(trifluoromethyl)phenyl)-2,3-dihydro-1H-1,4-benzodiazepin-3-yl)-2,3-bis(3,3,3-trifluoropropyl)succinamide]	1.4 nM	> 2 h	
Cc1ccccc1C1=N[C@H](NC(=O)[C@H](CCC(F)(F)F)[C@H](CCC(F)(F)F)C(N)=O)C(=O)Nc2c(Cl)cccc21 [Example 21, (2R,3S)—N-((3S)-9-Chloro-5-(2-methylphenyl)-2-oxo-2,3-dihydro-1H-1,4-benzodiazepin-3-yl)-2,3-bis(3,3,3-trifluoropropyl)succinamide]	6.1 nM	1.78 h	
Cc1cccc2c1NC(=O)[C@@H](NC(=O)[C@H](CCC(F)(F)F)[C@H](CCC(F)(F)F)C(N)=O)N=C2c1ccc(F)cc1 [Example 22, (2R,3S)—N-((3S)-5-(4-Fluorophenyl)-9-methyl-2-oxo-2,3-dihydro-1H-1,4-benzodiazepin-3-yl)-2,3-bis(3,3,3-trifluoropropyl)succinamide]	6.3 nM	> 2 h	
Cc1cccc2c1NC(=O)[C@@H](NC(=O)[C@H](CCC(F)(F)F)[C@H](CCC(F)(F)F)C(N)=O)N=C2c1ccccc1 [Example 23, (2R,3S)—N-((3S)-9-Methyl-2-oxo-5-phenyl-2,3-dihydro-1H-1,4-benzodiazepin-3-yl)-2,3-bis(3,3,3-trifluoropropyl)succinamide]	8.3 nM	1.68 h	
NC(=O)[C@@H](CCC(F)(F)F)[C@@H](CCC(F)(F)F)C(=O)N[C@H]1N=C(c2ccccc2)c2cccc(C3CC3)c2NC1=O [Example 24, (2R,3S)—N-((3S)-9-Cyclopropyl-2-oxo-5-phenyl-2,3-dihydro-1H-1,4-benzodiazepin-3-yl)-2,3-bis(3,3,3-trifluoropropyl)succinamide]	2.1 nM	1.03 h	
NC(=O)[C@@H](CCC(F)(F)F)[C@@H](CCC(F)(F)F)C(=O)N[C@H]1N=C(c2cccc(C3CC3)c2)c2cccc(Cl)c2NC1=O [Example 25, (2R,3S)—N-((3S)-9-Chloro-5-(3-cyclopropylphenyl)-2-oxo-2,3-dihydro-1H-1,4-benzodiazepin-3-yl)-2,3-bis(3,3,3-trifluoropropyl)succinamide]	2.9 nM	> 2 h	
COc1cccc2c1NC(=O)[C@@H](NC(=O)[C@H](CCC(F)(F)F)[C@H](CCC(F)(F)F)C(N)=O)N=C2c1cccc(Cl)c1 [Example 26, (2R,3S)—N-((3S)-5-(3-Chlorophenyl)-9-methoxy-2-oxo-2,3-dihydro-1H-1,4-benzodiazepin-3-yl)-2,3-bis(3,3,3-trifluoropropyl)succinamide]	3.4 nM	1.37 h	
COc1cccc2c1NC(=O)[C@@H](NC(=O)[C@H](CCC(F)(F)F)[C@H](CCC(F)(F)F)C(N)=O)N=C2c1ccc(Cl)cc1 [Example 27, (2R,3S)—N-((3S)-5-(4-Chlorophenyl)-9-methoxy-2-oxo-2,3-dihydro-1H-1,4-benzodiazepin-3-yl)-2,3-bis(3,3,3-trifluoropropyl)succinamide]			half-life at 0.5 µM [4]: 1.92 h
Cc1cccc(C2=N[C@H](NC(=O)[C@H](CCC(F)(F)F)[C@H](CCC(F)(F)F)C(N)=O)C(=O)Nc3c(Cl)cccc32)c1 [Example 28, (2R,3S)—N-((3S)-9-Chloro-5-(3-methylphenyl)-2-oxo-2,3-dihydro-1H-1,4-benzodiazepin-3-yl)-2,3-bis(3,3,3-trifluoropropyl)succinamide]	7.2 nM	1.63 h	
Cc1ccccc1C1=N[C@H](NC(=O)[C@H](CCC(F)(F)F)[C@H](CCC(F)(F)F)C(N)=O)C(=O)Nc2ccccc21 [Example 31, (2R,3S)—N-((3S)-5-(2-Methylphenyl)-2-oxo-2,3-dihydro-1H-1,4-benzodiazepin-3-yl)-2,3-bis(3,3,3-trifluoropropyl)succinamide]	4.6 nM	1.67 h	
COc1cccc2c1NC(=O)[C@@H](NC(=O)[C@H](CCC(F)(F)F)[C@H](CCC(F)(F)F)C(N)=O)N=C2c1ccc(C(F)(F)F)cn1 [Example 33, (2R,3S)—N-((3S)-9-Methoxy-2-oxo-5-(5-(trifluoromethyl)-2-pyridinyl)-2,3-dihydro-1H-1,4-benzodiazepin-3-yl)-2,3-bis(3,3,3-trifluoropropyl)succinamide]	7.4 nM	1.37 h	
Cc1ccc(C2=N[C@H](NC(=O)[C@H](CCC(F)(F)F)[C@H](CCC(F)(F)F)C(N)=O)C(=O)Nc3ccccc32)cc1 [Example 36, (2R,3S)—N-((3S)-5-(4-Methylphenyl)-2-oxo-2,3-dihydro-1H-1,4-benzodiazepin-3-yl)-2,3-bis(3,3,3-trifluoropropyl)succinamide]	3 nM	> 2 h	
NC(=O)[C@@H](CCC(F)(F)F)[C@@H](CCC(F)(F)F)C(=O)N[C@H]1N=C(c2cccc(F)c2)c2cccc(CO)c2NC1=O [Example 37, (2R,3S)—N-((3S)-5-(3-Fluorophenyl)-9-(hydroxymethyl)-2-oxo-2,3-dihydro-1H-1,4-benzodiazepin-3-yl)-2,3-bis(3,3,3-trifluoropropyl)succinamide]	9.3 nM	1.02 h	
Cc1cccc2c1N(COC(=O)Cc1ccc(OP(=O)(O)O)cc1)C(=O)[C@@H](NC(=O)[C@H](CCC(F)(F)F)[C@H](CCC(F)(F)F)C(N)=O)N=C2c1cccc(F)c1 [Example 43, ((3S)-3-(((2R,3S)-3-Carbamoyl-6,6,6-trifluoro-2-(3,3,3-trifluoropropyl)hexanoyl)amino)-5-(3-fluorophenyl)-9-methyl-2-oxo-2,3-dihydro-1H-1,4-benzodiazepin-1-yl)methyl(4-(phosphonooxy)phenyl)acetate]			% Relative Bioavailability to Example 1 [5]: 35%; AUC0-24 h of Example 1 after Administration of Prodrug [5]: 0.193 µM·h
